In patent US8889887B2, “Pentamethine cyanine fluorescent dyes, preparation methods and uses thereof” (Dalian University of Technology, priority 2011, dated 2014):
“And” between values parts separate entries of the source, which are not always exact repeats. Identical values can stand only once. Counter-ions that a name gives are not always drawn.

What was measured:
MCF-7 cells = experiment: Fluorescence imaging of stained cells under laser confocal scanning microscopy; assay type: cell-based
Procedure: The compounds 4 and 7 (12 μL, 5 μM) in PBS buffer were added into a 6-well plate with incubated MCF-7 cells, and then the plate was incubated for 30 minutes in a cell incubator of 37° C. and 5% CO2. The plate was rinsed with PBS for 5 min×3 times, fresh culture medium was added thereto, and the cells were observed under laser confocal scanning microscopy (Leica, TCS-SP2, Germany). Typical region was selected, the traditional Cy5 was excited at 633 nm and 7 was excited at 514 nm, the cells were observed under oil immersion lens (1000×) for three times.
(§1) MCF-7 cells and Hela cells were inoculated on a 6-well plate and cultured for 24 hours at 37° C. and 5% CO2. Then, the dye was added in a final concentration of 5 μM, and the plate was incubated at 37° C. for 30 min. The culture medium was moved off, and the plate was rinsed with PBS for two times. Fresh culture medium 1200 μL was added and the fluorescence was excited.
as §1, with “Then, H2O2 133.3 µL was added in a final concentration of 1 mM/L, and the plate was incubated at 37° C. for 2 hours. The culture medium was moved off, and the plate was rinsed with PBS for two times. Fresh culture medium 1200 μL was added and then” for “Then,”, “μM,” for “μM, and”
MCF-7 cells and Hela cells were inoculated on a 6-well plate and cultured for 24 hours at 37° C. and 5% CO2. The culture medium was moved off, and the plate was rinsed with PBS for two times. Appropriate amount of 70% ethanol was added and then the plate was incubated at 37° C. for 30 min. Ethanol for fixing was moved off, and the plate was rinsed with PBS for two times. PBS 1200 μL was added and then the dye was added in a final concentration of 5 μM, the plate was incubated at 37° C. for 30 min and the fluorescence was excited.

[1] = Viscosity experiments: absorption and emission spectra in glycerol-ethanol mixtures; assay type: physicochemical
Procedure: (§2) Firstly, DMSO solutions of 4 and 7 having a concentration of 1.0×10^−3 M were prepared, respectively. The stock solution of […] was added into 10 mL glycerol-ethanol mixture, and ultrasonicated to remove bubbles. The solution stayed for 1 hour, and then absorption and emission spectra therefore were measured by using UV-visible spectrophotometer and fluorescence spectrophotometer, and fluorescence lifetime of solution with different viscosity was detected as well. UV-visible spectrophotometer, model: Hp8453; fluorescence spectrophotometer model: FP-6500; Fluorescence lifetime equipment: Horiba Jobin Yvon Fluoromax-4-p.
(§3) Glycerol-ethanol mixture was a mixture of glycerol and ethanol, Vglycerol: Vethanol were 1:9, 2:8, 3:7, 4:6, 5:5, 6:4, 7:3, 8:2 and 9:1.

[2] = UV absorption and fluorescence emission spectra in different solvents; assay type: physicochemical; conditions: for λabs1 maximum absorption wavelength / λabs2 maximum absorption wavelength / λem1 maximum emission wavelength / λem2 maximum emission wavelength: 1 μM; for Φ1 fluorescence quantum yield / Φ2 fluorescence quantum yield: reference Rhodamine B in ethanol
Procedure: Firstly, stock solutions of 4 and 7 in DMSO were prepared respectively. Then sample solutions of 1 μM were prepared by diluting the mother liquors with corresponding chromatography grade solvent. UV absorption and fluorescence emission spectra of the sample solutions in different solvents were measured at room temperature, the results were shown in FIGS. 1A and 1B, respectively.

[3] = Fluorescence lifetime in solutions with different viscosity; assay type: physicochemical; conditions: FIG. 5A, 1 μM
Procedure: as §2, §3

UV absorption with variation of solution viscosity ([1]; FIG. 4A, 1 μM): kept constant
sensitivity of fluorescence intensity to solvent viscosity ([1]; glycerol-ethanol mixtures): quite sensitive to solvent viscosity
Δλ1 Stokes Shift (λem1 − λabs1) ([2]; DMSO): 47 nm
Δλ2 Stokes Shift (λem2 − λabs2) ([2]; DMSO): 31 nm
Δλ3 Stokes Shift (λem2 − λabs1) ([2]; DMSO): 148 nm
ε1 molar extinction coefficient ([2]; DMSO): 45000 L/cm/mol
ε2 molar extinction coefficient ([2]; DMSO): 118200 L/cm/mol
λabs1 maximum absorption wavelength ([2]; DMSO): 522 nm
λabs2 maximum absorption wavelength ([2]; DMSO): 639 nm
λem1 maximum emission wavelength ([2]; DMSO): 569 nm
λem2 maximum emission wavelength ([2]; DMSO): 670 nm
Φ1 fluorescence quantum yield ([2]; DMSO): 0.0057
Φ2 fluorescence quantum yield ([2]; DMSO): 0.0113
Δλ1 Stokes Shift (λem1 − λabs1) ([2]; acetonitrile): 48 nm
Δλ2 Stokes Shift (λem2 − λabs2) ([2]; acetonitrile): 25 nm
Δλ3 Stokes Shift (λem2 − λabs1) ([2]; acetonitrile): 148 nm
ε1 molar extinction coefficient ([2]; acetonitrile): 59400 L/cm/mol
ε2 molar extinction coefficient ([2]; acetonitrile): 112000 L/cm/mol
λabs1 maximum absorption wavelength ([2]; acetonitrile): 513 nm
λabs2 maximum absorption wavelength ([2]; acetonitrile): 635 nm
λem1 maximum emission wavelength ([2]; acetonitrile): 561 nm
λem2 maximum emission wavelength ([2]; acetonitrile): 661 nm
Φ1 fluorescence quantum yield ([2]; acetonitrile): 0.0017
Φ2 fluorescence quantum yield ([2]; acetonitrile): 0.0019
Δλ1 Stokes Shift (λem1 − λabs1) ([2]; dichloromethane): 56 nm
Δλ2 Stokes Shift (λem2 − λabs2) ([2]; dichloromethane): 16 nm
Δλ3 Stokes Shift (λem2 − λabs1) ([2]; dichloromethane): 160 nm
ε1 molar extinction coefficient ([2]; dichloromethane): 49700 L/cm/mol
ε2 molar extinction coefficient ([2]; dichloromethane): 113500 L/cm/mol
λabs1 maximum absorption wavelength ([2]; dichloromethane): 512 nm
λabs2 maximum absorption wavelength ([2]; dichloromethane): 656 nm
λem1 maximum emission wavelength ([2]; dichloromethane): 568 nm
λem2 maximum emission wavelength ([2]; dichloromethane): 672 nm
Φ1 fluorescence quantum yield ([2]; dichloromethane): 0.0016
Φ2 fluorescence quantum yield ([2]; dichloromethane): 0.006
Δλ1 Stokes Shift (λem1 − λabs1) ([2]; ethanol): 56 nm
Δλ2 Stokes Shift (λem2 − λabs2) ([2]; ethanol): 27 nm
Δλ3 Stokes Shift (λem2 − λabs1), pseudo-Stokes Shift ([2]; ethanol): 158 nm
ε1 molar extinction coefficient ([2]; ethanol): 53100 L/cm/mol
ε2 molar extinction coefficient ([2]; ethanol): 125600 L/cm/mol
λabs1 maximum absorption wavelength ([2]; ethanol): 510 nm
λabs2 maximum absorption wavelength ([2]; ethanol): 641 nm
λem1 maximum emission wavelength ([2]; ethanol): 566 nm
λem2 maximum emission wavelength ([2]; ethanol): 668 nm
Φ1 fluorescence quantum yield ([2]; ethanol): 0.0022
Φ2 fluorescence quantum yield ([2]; ethanol): 0.0048
sensitivity to solvent polarity ([2]; low-viscosity solvents of different polarity): insensitive to solvent polarity
Δλ1 Stokes Shift (λem1 − λabs1) ([2]; methanol): 59 nm
Δλ2 Stokes Shift (λem2 − λabs2) ([2]; methanol): 25 nm
Δλ3 Stokes Shift (λem2 − λabs1) ([2]; methanol): 156 nm
ε1 molar extinction coefficient ([2]; methanol): 49000 L/cm/mol
ε2 molar extinction coefficient ([2]; methanol): 122000 L/cm/mol
λabs1 maximum absorption wavelength ([2]; methanol): 509 nm
λabs2 maximum absorption wavelength ([2]; methanol): 636 nm
λem1 maximum emission wavelength ([2]; methanol): 568 nm
λem2 maximum emission wavelength ([2]; methanol): 665 nm
Φ1 fluorescence quantum yield ([2]; methanol): 0.0022
Φ2 fluorescence quantum yield ([2]; methanol): 0.0031
absorption peak, longer wavelength ([2]; solvent not stated): 655 nm
absorption peak, shorter wavelength ([2]; solvent not stated): 510 nm
emission peak, longer wavelength ([2]; solvent not stated): 668 nm and 665 nm
emission peak, shorter wavelength ([2]; solvent not stated): 565 nm
Δλ1 Stokes Shift (λem1 − λabs1) ([2]; water): 50 nm
Δλ2 Stokes Shift (λem2 − λabs2) ([2]; water): 28 nm
Δλ3 Stokes Shift (λem2 − λabs1) ([2]; water): 135 nm
ε1 molar extinction coefficient ([2]; water): 31000 L/cm/mol
ε2 molar extinction coefficient ([2]; water): 52400 L/cm/mol
λabs1 maximum absorption wavelength ([2]; water): 520 nm
λabs2 maximum absorption wavelength ([2]; water): 627 nm
λem1 maximum emission wavelength ([2]; water): 570 nm
λem2 maximum emission wavelength ([2]; water): 655 nm
Φ1 fluorescence quantum yield ([2]; water): 0.0006
Φ2 fluorescence quantum yield ([2]; water): 0.0028
fluorescence lifetime at 665 nm with increase of solution viscosity [3]: obviously elongated
SMILES: CCN1/C(=C/C=C(C=C(C#N)C#N)/C=C/C2=[N+](CC)c3ccccc3C2(C)C)C(C)(C)c2ccccc21 [compound 7, 1,5-di(1-N-ethyl-3,3-dimethyl-2,3-H— lindoline)-3-(2,2-dicyanovinyl)-1,3,5-pentatriene chloride quaternary ammonium salt cyanine dye]
ratio value of fluorescence (red 665 / green 565 nm channel) (MCF-7 cells; MCF-7 cells stood 4 hours at room temperature after incubation (dying)): ratio value of the probe was between (1) and (2)
ratio value of fluorescence (red 665 / green 565 nm channel) (MCF-7 cells; MCF-7 cells treated with hydrogen peroxide (1 mM), apoptosis induced): ratio value was increased
ratio value of fluorescence (red 665 / green 565 nm channel) (MCF-7 cells; normal live MCF-7 cells, 5 μM, 30 minutes): ratio value was small
